Results as given in PMC6631349 (Xenobiotica; the fate of foreign compounds in biological …, 2014).
Blank lines part the entries; values can stand above or below the compound they belong to.

Legend:
UGT1A3 = details: ref Fang et al., 2014b; cited from earlier work
UGT isoforms = assay: Initial screening towards all UGT isoforms; type: biochemical, human; details: about 50 μM; isoforms not given
UGT1A6 [1] = target: T1, UGT1A6 (Homo sapiens, UniProt P19224); details: 50 μM
T1 sequence (P19224 27-532): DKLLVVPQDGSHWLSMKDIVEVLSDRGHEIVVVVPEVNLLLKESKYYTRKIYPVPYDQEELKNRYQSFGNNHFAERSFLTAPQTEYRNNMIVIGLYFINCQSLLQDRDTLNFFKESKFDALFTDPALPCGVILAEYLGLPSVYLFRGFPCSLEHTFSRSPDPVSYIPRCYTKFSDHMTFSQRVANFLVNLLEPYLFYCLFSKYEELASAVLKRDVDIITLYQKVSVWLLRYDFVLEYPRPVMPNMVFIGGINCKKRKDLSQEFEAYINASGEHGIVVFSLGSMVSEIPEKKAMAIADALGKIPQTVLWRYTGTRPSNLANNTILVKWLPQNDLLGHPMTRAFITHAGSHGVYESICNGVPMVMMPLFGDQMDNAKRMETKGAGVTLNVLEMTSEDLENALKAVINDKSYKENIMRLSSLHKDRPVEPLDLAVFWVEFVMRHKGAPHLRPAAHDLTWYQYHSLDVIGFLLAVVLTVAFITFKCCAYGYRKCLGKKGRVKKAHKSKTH

UGT1A8 [2] = target: T2, UGT1A8 (Homo sapiens, UniProt Q9HAW9); details: 50 μM
T2 sequence (Q9HAW9 26-530): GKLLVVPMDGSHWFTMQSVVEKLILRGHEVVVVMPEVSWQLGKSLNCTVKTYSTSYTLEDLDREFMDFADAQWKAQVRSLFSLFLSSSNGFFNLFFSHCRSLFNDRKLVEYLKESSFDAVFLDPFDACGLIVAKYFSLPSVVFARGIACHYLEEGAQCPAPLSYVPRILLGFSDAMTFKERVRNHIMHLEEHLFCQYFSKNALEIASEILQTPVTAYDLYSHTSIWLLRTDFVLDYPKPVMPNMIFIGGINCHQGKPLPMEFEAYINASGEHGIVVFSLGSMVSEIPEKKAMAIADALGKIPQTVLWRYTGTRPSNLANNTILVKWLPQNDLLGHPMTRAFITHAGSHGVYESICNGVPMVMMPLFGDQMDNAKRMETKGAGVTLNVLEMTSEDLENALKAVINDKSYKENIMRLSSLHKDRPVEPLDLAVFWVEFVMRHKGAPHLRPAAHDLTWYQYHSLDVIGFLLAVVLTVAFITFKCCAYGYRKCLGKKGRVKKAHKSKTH

UGT2B7 = target: T3, UGT2B7 (Homo sapiens, UniProt P16662); details: 50 μM
T3 sequence (P16662 24-529): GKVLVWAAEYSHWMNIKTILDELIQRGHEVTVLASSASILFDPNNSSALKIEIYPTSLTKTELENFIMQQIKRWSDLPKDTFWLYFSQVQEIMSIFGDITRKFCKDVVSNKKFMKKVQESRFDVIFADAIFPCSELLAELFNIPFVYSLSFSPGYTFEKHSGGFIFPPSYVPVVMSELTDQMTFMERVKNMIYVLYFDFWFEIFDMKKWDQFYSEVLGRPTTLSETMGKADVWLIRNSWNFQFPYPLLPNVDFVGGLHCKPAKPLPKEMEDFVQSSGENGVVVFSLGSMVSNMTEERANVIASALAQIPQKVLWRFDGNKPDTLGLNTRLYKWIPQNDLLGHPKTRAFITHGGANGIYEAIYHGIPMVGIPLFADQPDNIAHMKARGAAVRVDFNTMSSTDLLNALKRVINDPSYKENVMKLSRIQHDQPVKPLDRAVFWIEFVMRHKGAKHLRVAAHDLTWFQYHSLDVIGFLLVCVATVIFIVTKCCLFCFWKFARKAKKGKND

UGTs = details: ref Dragacci et al. (1987); cited from earlier work
UGT1A4 = target: T4, UGT1A4 (Homo sapiens, UniProt P22310); assay: UGT1A4-catalyzed trifluoperazine; details: recombinant human UGT1A4, probe trifluoperazine (TFP), 40 μM
T4 sequence (P22310 29-534): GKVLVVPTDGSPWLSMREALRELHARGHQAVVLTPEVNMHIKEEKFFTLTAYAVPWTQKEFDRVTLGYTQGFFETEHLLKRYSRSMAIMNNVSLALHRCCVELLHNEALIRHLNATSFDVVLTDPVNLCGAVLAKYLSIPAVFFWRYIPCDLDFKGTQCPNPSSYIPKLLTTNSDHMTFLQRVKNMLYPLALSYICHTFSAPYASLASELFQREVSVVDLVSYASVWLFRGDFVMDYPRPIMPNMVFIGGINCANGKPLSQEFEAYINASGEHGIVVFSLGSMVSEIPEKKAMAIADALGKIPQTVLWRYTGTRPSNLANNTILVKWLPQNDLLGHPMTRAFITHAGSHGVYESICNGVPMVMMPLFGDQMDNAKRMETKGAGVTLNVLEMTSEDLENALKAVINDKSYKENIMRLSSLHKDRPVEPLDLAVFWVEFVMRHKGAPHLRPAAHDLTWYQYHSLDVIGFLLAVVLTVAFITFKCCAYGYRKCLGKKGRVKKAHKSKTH

UGT1A6 [3] = target: T1, UGT1A6; details: Dixon and Lineweaver-Burk plots; 4-MU glucuronidation
UGT1A8 [4] = target: T2, UGT1A8; details: Dixon and Lineweaver-Burk plots; 4-MU glucuronidation
[5] = test system: multiple UGT isoforms, including UGT1A1, UGT1A3, UGT1A4, UGT1A7, UGT1A10, UGT2B7 and UGT2B15; details: ref Fang et al., 2013b; cited from earlier work

SMILES: C[C@H](CCC(=O)O)[C@H]1CC[C@H]2[C@@H]3[C@H](O)C[C@@H]4C[C@H](O)CC[C@]4(C)[C@H]3C[C@H](O)[C@]12C [CA, cholic acid]
effect on the activity of UGT1A3 (in words) (UGT1A3): allosteric activation

SMILES: C[C@H](CCC(=O)NCC(=O)O)[C@H]1CC[C@H]2[C@@H]3[C@H](O)C[C@@H]4C[C@H](O)CC[C@]4(C)[C@H]3C[C@H](O)[C@]12C [GCA, glycocholic acid]
effect on the activity of UGT1A3 (in words) (UGT1A3): allosteric activation

SMILES: CCCCCCCCCCCCCCCC(=O)OC[C@@H](O)COP(=O)([O-])OCC[N+](C)(C)C [LPC 16:0]
inhibition of activity of UGT isoforms (UGT isoforms): more than 90%

inhibition percentage of UGT1A6 activity (UGT1A6 [1]): 97.5%
inhibition percentage of UGT1A8 activity (UGT1A8 [2]): 98.7%
inhibition percentage of UGT2B7 activity (UGT2B7): 87.3%
SMILES: CCCCCCCC/C=C\CCCCCCCC(=O)OC[C@@H](O)COP(=O)([O-])OCC[N+](C)(C)C [LPC 18:1]
inhibition of activity of UGT isoforms (UGT isoforms): more than 90%
increase for UGTs' activity (maximal regulation capability) (UGTs): approximately 4 fold

SMILES: CCCCCCCCCCCCCCCC(=O)OC[C@H](COP(=O)([O-])OCC[N+](C)(C)C)OC(C)=O [PC 16:0, 2:0, 1-palmitoyl-2-acetyl-sn-glycero-3-phosphocholine]
inhibition of activity of UGT isoforms (UGT isoforms): more than 90%
activity at 20 min, 50 μM (UGT1A4): 5.5%
inhibition at 20 min, 50 µM (UGT1A4): 94.5%
inhibition kinetic type towards UGT1A6 (UGT1A6 [3]): competitive inhibition
inhibition kinetic type towards UGT1A8 (UGT1A8 [4]): non-competitively inhibited

activity at 20 min, 50 μM (UGT1A4): 63.8%
SMILES: CCCCCCCCCCCCCCCC(=O)OC[C@H](COP(=O)([O-])OCC[N+](C)(C)C)OC(=O)CCCCCCCCCCCCC [PC 16:0, 14:0, 1-palmitoyl-2-myristoyl-sn-glycero-3-phosphocholine]

activity at 20 min, 50 μM (UGT1A4): 90%
SMILES: CCCCCCCCCCCCCCCCCC(=O)O[C@H](COC(=O)CCCCCCCCCCCCCCC)COP(=O)([O-])OCC[N+](C)(C)C [PC 16:0, 18:0, 1-palmitoyl-2-stearoyl-sn-glycero-3-phosphocholine]

activity at 20 min, 50 μM (UGT1A4): 51.8%
SMILES: CCCCCCCC/C=C\CCCCCCCC(=O)O[C@H](COC(=O)CCCCCCCCCCCCCCC)COP(=O)([O-])OCC[N+](C)(C)C [PC 16:0, 18:1, 1-palmitoyl-2-oleoyl-sn-glycero-3-phosphocholine]

SMILES: CCCCC/C=C\C/C=C\CCCCCCCC(=O)O[C@H](COC(=O)CCCCCCCCCCCCCCCCC)COP(=O)([O-])OCC[N+](C)(C)C [PC 18:0, 18:2, 1-stearoyl-2-linoleoyl-sn-glycero-3-phosphocholine]
activity at 20 min, 50 μM (UGT1A4): 54.3%

SMILES: CCCCC/C=C\C/C=C\C/C=C\C/C=C\CCCC(=O)O[C@H](COC(=O)CCCCCCCCCCCCCCCCC)COP(=O)([O-])OCC[N+](C)(C)C [PC 18:0, 20:4, 1-stearoyl-2-arachidonoyl-sn-glycero-3-phosphocholine]
activity at 20 min, 50 μM (UGT1A4): 52.1%

activity at 20 min, 50 μM (UGT1A4): 49.8%
SMILES: CCCCCCCC/C=C\CCCCCCCC(=O)OC[C@H](COP(=O)([O-])OCC[N+](C)(C)C)OC(=O)CCCCCCCCCCCCC [PC 18:1, 14:0, 1-oleoyl-2-myristoyl-sn-glycero-3-phosphocholine]

SMILES: CCCCCCCC/C=C\CCCCCCCC(=O)OC[C@H](COP(=O)([O-])OCC[N+](C)(C)C)OC(=O)CCCCCCCCCCCCCCC [PC 18:1, 16:0, 1-oleoyl-2-palmitoyl-sn-glycero-3-phosphocholine]
activity at 20 min, 50 μM (UGT1A4): 52.6%

activity at 20 min, 50 μM (UGT1A4): 60.4%
SMILES: CCCCCCCC/C=C\CCCCCCCC(=O)OC[C@H](COP(=O)([O-])OCC[N+](C)(C)C)OC(=O)CCCCCCCCCCCCCCCCC [PC 18:1, 18:0, 1-oleoyl-2-stearoyl-sn-glycero-3-phosphocholine]

SMILES: C[C@H](CCC(=O)NCCS(=O)(=O)O)[C@H]1CC[C@H]2[C@@H]3CC[C@@H]4C[C@H](O)CC[C@]4(C)[C@H]3CC[C@]12C [TLCA, taurolithocholic acid]
inhibitory effects towards multiple UGT isoforms (in words) [5]: strong inhibitory effects
